Experimental data from US8748417B2, “Amino-pyrrolidine-azetidine diamides as monoacylglycerol lipase inhibitors” (Janssen Pharmaceutica, NV, priority 2010, dated 2014).
pIC50: −log10 of the molar value.

Assays:
[1] = biological target: T1, purified wild type MGL (wt-MGLL 6H-11-313) (Homo sapiens, UniProt Q99685); assay: MGL enzyme activity assay (4MU-B cleavage), wild type MGL; assay type: biochemical; details: wild type MGL 5 nM, 4MU-B 10 μM, 37° C.; read-out: MGL wild type inh IC50
T1 construct: purified wild type MGL (wt-MGLL 6H-11-313)
T1 sequence (Q99685 1-303): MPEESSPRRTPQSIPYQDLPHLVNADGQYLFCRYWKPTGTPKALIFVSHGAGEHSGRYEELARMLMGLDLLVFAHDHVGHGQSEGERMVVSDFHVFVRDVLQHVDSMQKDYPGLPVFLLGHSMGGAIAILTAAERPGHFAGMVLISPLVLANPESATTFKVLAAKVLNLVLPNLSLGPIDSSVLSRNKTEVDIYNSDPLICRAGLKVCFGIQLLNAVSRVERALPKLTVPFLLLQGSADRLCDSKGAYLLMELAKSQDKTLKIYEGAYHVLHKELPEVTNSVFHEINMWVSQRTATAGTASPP
Method: All rate-based assays were performed in black 384-well polypropylene PCR microplates (Abgene) in a total volume of 30 μL. Substrate 4-methylumbelliferyl butyrate (4MU-B; Sigma) and either purified mutant MGL (mut-MGLL 11-313 L179S L186S) or purified wild type MGL (wt-MGLL 6H-11-313) were diluted separately into 20 mM PIPES buffer (pH=7.0), containing 150 mM NaCl and 0.001% Tween 20. Compounds of Formula (I) were pre-dispensed (50 nL) into the assay plate using a Cartesian Hummingbird prior to adding 4MU-B (25 μL of 1.2× solution to a final concentration of 10 μM) followed by enzyme (5 μL of a 6× solution to a final concentration of 5 nM) to initiate the reaction. Final compound concentrations ranged from 17 to 0.0003 μM. The fluorescence change due to 4MU-B cleavage was monitored with excitation and emission wavelengths of 335 and 440 nm, respectively, and a bandwidth of 10 nm (Safire^2, Tecan) at 37° C. for 5 min.
The IC50 values for the following compounds were determined using Microsoft Office Excel from a fit of the equation to the concentration-response plot of the fractional activity as a function of inhibitor concentration.

[2] = tested on: MGL (rat brain homogenate); assay: 2-AG accumulation assay in rat brain homogenate; assay type: biochemical; details: compound 1 μM, percent of vehicle 2-AG accumulation
Method: After a 15-min incubation time at 37° C., CaCl2 (final concentration=10 mM) was added and then incubated for 15 min at 37° C. in a total volume of 5 mL. The reactions were stopped with 6 mL organic solvent extraction solution of 2:1 chloroform/methanol. Accumulated 2-AG in the organic phase was measured by a HPLC/MS method, according to the following equation: percent vehicle=(2-AG accumulation in the presence of compound/2-AG accumulation in vehicle)×100.

| Structure (SMILES) | pIC50 [1] | Rat Brain 2AG % VehCntrl (%) @1 μM [2] [%] |
| --- | --- | --- |
| O=C(c1ccc(C(O)c2ccc(C(F)(F)F)cc2)cc1)N1CC(N[C@H]2CCN(C(=O)c3ccccc3)C2)C1 (stereo partly drawn) [Cpd 67] | 8.01 | 928 |
| CC(C)=Cc1c(C(=O)N2CC(N[C@H]3CCN(C(=O)c4ccccc4)C3)C2)sc2cc(C(F)(F)F)ccc12 [Cpd 76, (3S)-N-(1-{[3-(2-Methylprop-1-en-1-yl)-6-(trifluoromethyl)-1-benzothiophen-2-yl]carbonyl}azetidin-3-yl)-1-(phenylcarbonyl)pyrrolidin-3-amine] | 7.21 | 522 |
| O=C(c1ccc(Cc2ccc(C(F)(F)F)cc2)cc1)N1CC(N[C@H]2CCN(C(=O)c3ccccc3)C2)C1 [Cpd 77, (S)-(3-((1-Benzoylpyrrolidin-3-yl)amino)azetidin-1-yl)(4-(4-(trifluoromethyl)benzyl)phenyl)methanone] | > 8.30 | 506 |
| Cc1c(C(=O)N2CC(N[C@H]3CCN(C(=O)c4ccccc4)C3)C2)sc2cc(C(F)(F)F)ccc12 [Cpd 80, (3S)-N-(1-{[3-Methyl-6-(trifluoromethyl)-1-benzothiophen-2-yl]carbonyl}azetidin-3-yl)-1-(phenylcarbonyl)pyrrolidin-3-amine] | 7.65 | 174 |
| Cc1c(C(=O)N2CC(N[C@H]3CCN(C(=O)c4cscn4)C3)C2)sc2ccc(Cl)cc12 [Cpd 85, (3S)-N-{1-[(5-Chloro-3-methyl-1-benzothiophen-2-yl)carbonyl]azetidin-3-yl}-1-(1,3-thiazol-4-ylcarbonyl)pyrrolidin-3-amine] | 7.32 | 335 |
| Cc1c(C(=O)N2CC(N[C@H]3CCN(C(=O)c4nccs4)C3)C2)sc2cc(F)ccc12 [Cpd 87, (3S)-N-{1-[(6-Fluoro-3-methyl-1-benzothiophen-2-yl)carbonyl]azetidin-3-yl}-1-(1,3-thiazol-2-ylcarbonyl)pyrrolidin-3-amine] | 7.47 | 385 |
| O=C(c1cscn1)N1CC[C@H](NC2CN(C(=O)c3cc4ccc(C(F)(F)F)cc4s3)C2)C1 [Cpd 139, (3S)-1-(1,3-Thiazol-4-ylcarbonyl)-N-(1-{[6-(trifluoromethyl)-1-benzothiophen-2-yl]carbonyl}azetidin-3-yl)pyrrolidin-3-amine] | 6.51 | – |
| Cc1cc(-c2cccc(C(F)(F)F)c2)ccc1C(=O)N1CC(N[C@H]2CCN(C(=O)c3ccccc3)C2)C1 [Cpd 153, (3S)-N-(1-{[3-Methyl-3′-(trifluoromethyl)biphenyl-4-yl]carbonyl}azetidin-3-yl)-1-(phenylcarbonyl)pyrrolidin-3-amine] | 6.75 | – |
| O=C(c1ccc2nc(-c3ccccc3)sc2c1)N1CC(N[C@H]2CCN(C(=O)c3ccccc3)C2)C1 [Cpd 157, (3S)-N-{1-[(2-Phenyl-1,3-benzothiazol-6-yl)carbonyl]azetidin-3-yl}-1-(phenylcarbonyl)pyrrolidin-3-amine] | 6.68 | – |
| Cc1ccc2sc(C(=O)N3CC(N[C@H]4CCN(C(=O)c5cscn5)C4)C3)c(C(F)(F)F)c2c1 [Cpd 184, (3S)-N-(1-{[5-Methyl-3-(trifluoromethyl)-1-benzothiophen-2-yl]carbonyl}azetidin-3-yl)-1-(1,3-thiazol-4-ylcarbonyl)pyrrolidin-3-amine] | 6.69 | – |
| O=C(c1ccc2c(-c3ccc(F)cc3)c[nH]c2c1)N1CC(N[C@H]2CCN(C(=O)c3cscn3)C2)C1 [Cpd 190, (3S)-N-(1-{[3-(4-Fluorophenyl)-1H-indol-6-yl]carbonyl}azetidin-3-yl)-1-(1,3-thiazol-4-ylcarbonyl)pyrrolidin-3-amine] | 6.94 | – |
| Cn1nc(-c2ccccc2)c2cc(C(=O)N3CC(N[C@H]4CCN(C(=O)c5cscn5)C4)C3)ccc21 [Cpd 196, (3S)-N-{1-[(1-Methyl-3-phenyl-1H-indazol-5-yl)carbonyl]azetidin-3-yl}-1-(1,3-thiazol-4-ylcarbonyl)pyrrolidin-3-amine] | 6.53 | – |
| Cn1nc(-c2ccccc2)c2cc(C(=O)N3CC(N[C@H]4CCN(C(=O)c5ccccc5)C4)C3)ccc21 [Cpd 197, (3S)-N-{1-[(1-Methyl-3-phenyl-1H-indazol-5-yl)carbonyl]azetidin-3-yl}-1-(phenylcarbonyl)pyrrolidin-3-amine] | 6.70 | – |
| Cn1nc(-c2cccc(F)c2)c2cc(C(=O)N3CC(N[C@H]4CCN(C(=O)c5ccccc5)C4)C3)ccc21 [Cpd 201, (3S)-N-(1-{[3-(3-Fluorophenyl)-1-methyl-1H-indazol-5-yl]carbonyl}azetidin-3-yl)-1-(phenylcarbonyl)pyrrolidin-3-amine] | 6.34 | – |
| Cn1nc(-c2ccc(F)cc2)c2cc(C(=O)N3CC(N[C@H]4CCN(C(=O)c5nccs5)C4)C3)ccc21 [Cpd 209, (3S)-N-(1-{[3-(4-Fluorophenyl)-1-methyl-1H-indazol-5-yl]carbonyl}azetidin-3-yl)-1-(1,3-thiazol-2-ylcarbonyl)pyrrolidin-3-amine] | 6.55 | – |
| Cn1nc(-c2ccc(F)cc2)c2cc(C(=O)N3CC(N[C@H]4CCN(C(=O)c5cscn5)C4)C3)ccc21 [Cpd 210, (3S)-N-(1-{[3-(4-Fluorophenyl)-1-methyl-1H-indazol-5-yl]carbonyl}azetidin-3-yl)-1-(1,3-thiazol-4-ylcarbonyl)pyrrolidin-3-amine] | 5.69 | – |
| Cn1nc(-c2ccc(F)cc2)c2cc(C(=O)N3CC(N[C@H]4CCN(C(=O)c5ccccc5)C4)C3)ccc21 [Cpd 211, (3S)-N-(1-{[3-(4-Fluorophenyl)-1-methyl-1H-indazol-5-yl]carbonyl}azetidin-3-yl)-1-(phenylcarbonyl)pyrrolidin-3-amine] | 6.03 | – |

The next lines start with results.

| pIC50 [1] | Structure (SMILES) | Rat Brain 2AG % VehCntrl (%) @1 μM [2] [%] |
| --- | --- | --- |
| > 8.30 | Cc1c(C(=O)N2CC(N[C@H]3CCN(C(=O)c4nccs4)C3)C2)sc2ccc(Cl)cc12 [Cpd 84, (3S)-N-{1-[(5-Chloro-3-methyl-1-benzothiophen-2-yl)carbonyl]azetidin-3-yl}-1-(1,3-thiazol-2-ylcarbonyl)pyrrolidin-3-amine] | 433 |
| 5.89 | O=C(c1ccc2c(ccn2-c2ncccn2)c1)N1CC(N[C@H]2CCN(C(=O)c3ccccc3)C2)C1 [Cpd 155, (3S)-1-(Phenylcarbonyl)-N-{1-[(1-pyrimidin-2-yl-1H-indol-5-yl)carbonyl]azetidin-3-yl}pyrrolidin-3-amine] | – |
| 6.32 | O=C(c1ccc2c(cnn2-c2ccccc2)c1)N1CC(N[C@H]2CCN(C(=O)c3ccccc3)C2)C1 [Cpd 156, (3S)-1-(Phenylcarbonyl)-N-{1-[(1-phenyl-1H-indazol-5-yl)carbonyl]azetidin-3-yl}pyrrolidin-3-amine] | – |
| 6.46 | Cn1cc(-c2ccccc2)c2ccc(C(=O)N3CC(N[C@H]4CCN(C(=O)c5cscn5)C4)C3)cc21 [Cpd 170, (3S)-N-{1-[(1-Methyl-3-phenyl-1H-indol-6-yl)carbonyl]azetidin-3-yl}-1-(1,3-thiazol-4-ylcarbonyl)pyrrolidin-3-amine] | – |
| 6.66 | O=C(c1ccccc1)N1CC[C@H](NC2CN(C(=O)c3sc4cc(Cl)ccc4c3C(F)(F)F)C2)C1 [Cpd 182, (3S)-N-(1-{[6-Chloro-3-(trifluoromethyl)-1-benzothiophen-2-yl]carbonyl}azetidin-3-yl)-1-(phenylcarbonyl)pyrrolidin-3-amine] | – |
| 6.31 | Cc1ccc2c(C(F)(F)F)c(C(=O)N3CC(N[C@H]4CCN(C(=O)c5cscn5)C4)C3)sc2c1 [Cpd 185, (3S)-N-(1-{[6-Methyl-3-(trifluoromethyl)-1-benzothiophen-2-yl]carbonyl}azetidin-3-yl)-1-(1,3-thiazol-4-ylcarbonyl)pyrrolidin-3-amine] | – |
| 6.53 | O=C(c1ccc2c(-c3ccc(F)cc3)c[nH]c2c1)N1CC(N[C@H]2CCN(C(=O)c3ccccc3)C2)C1 [Cpd 191, (3S)-N-(1-{[3-(4-Fluorophenyl)-1H-indol-6-yl]carbonyl}azetidin-3-yl)-1-(phenylcarbonyl)pyrrolidin-3-amine] | – |
| 6.97 | Cn1nc(-c2cccc(F)c2)c2cc(C(=O)N3CC(N[C@H]4CCN(C(=O)c5nccs5)C4)C3)ccc21 [Cpd 199, (3S)-N-(1-{[3-(3-Fluorophenyl)-1-methyl-1H-indazol-5-yl]carbonyl}azetidin-3-yl)-1-(1,3-thiazol-2-ylcarbonyl)pyrrolidin-3-amine] | – |
| 6.07 | Cn1nc(-c2cccc(F)c2)c2cc(C(=O)N3CC(N[C@H]4CCN(C(=O)c5cscn5)C4)C3)ccc21 [Cpd 200, (3S)-N-(1-{[3-(3-Fluorophenyl)-1-methyl-1H-indazol-5-yl]carbonyl}azetidin-3-yl)-1-(1,3-thiazol-4-ylcarbonyl)pyrrolidin-3-amine] | – |
